The text below walks through data of PMC10066365, “Nemacol is a small molecule inhibitor of C. elegans vesicular acetylcholine transporter with anthelmintic potential” (Nature Communications, 2023).

Where “and” joins values, the source holds several entries; their conditions need not be identical. Equal entries are not always repeated. Where two headings read alike, the source gives them in different places.

In experiment [1] the test system is Dirofilaria immitis L3/L4. Description: Dirofilaria immitis L3/L4 motility assay (DiroImager, 72 h). The following applies: Dirofilaria immitis L4.
For another experiment, the system named is C. elegans. Description: C. elegans motor phenotype scoring on solid media (Punc/jerky-unc, coiled, paralyzed), wild-type young adults. In kind it is in vivo, Caenorhabditis elegans. The following applies: for any phene, mean % fraction of young adults exhibiting any phenotype (coiled, jerky-Unc or paralyzed) / atypical locomotion (number of animals) / coiled (number of animals) / no phene (number of animals) / paralyzed (number of animals) / any phene (mean % fraction of young adults exhibiting any phenotype: coiled, jerky-Unc or paralyzed): one hour; for any phene, mean % fraction of young adults exhibiting any phenotype (coiled, jerky-Unc or paralyzed) / any phene (mean % fraction of young adults exhibiting any phenotype: coiled, jerky-Unc or paralyzed): mean of three biological replicates; for atypical locomotion (number of animals) / coiled (number of animals) / no phene (number of animals) / paralyzed (number of animals): young adults, 20 animals per trial, single replicate counts; for EC50: Caenorhabditis elegans, read-out: C. elegans - motor disruption EC50.

Another experiment relates to Pristionchus pacificus. Description: Pristionchus pacificus motor disruption dose-response on solid media, 1 h. The following applies: for mean % any phene (coiled, jerky-Unc or paralyzed): Pristionchus pacificus young adults, mean of three biological replicates; for EC50: Pristionchus pacificus, 1 h, read-out: P. pacificus motor disruption EC50.
Experiment [2] concerns Dirofilaria immitis microfilariae. Description: Dirofilaria immitis microfilariae immobility assay (DiroImager, 72 h). The following applies: for % effect (motility), DIROIM MF: Dirofilaria immitis microfilariae; for EC50: Dirofilaria immitis, 72 h, read-out: Dirofilaria immitis filariae EC50. An outline of the steps: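 Motility read after 72 h drug exposure with an image-based high-throughput plate imager, 1% DMSO medium serving as negative control. Missouri-isolate microfilariae, roughly 250 per well, freshly purified and cultured in supplemented RPMI 1640.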

Setting [3] is: any motor phenotype after 1 h on solid media, ± 95% CI.
Where [4] appears, read: conc 3.75, observed at one hour.
[5] abbreviates: 3.75uM, third c14 line of each analog.
[6] abbreviates: 15uM, second c14 line of each analog.
Setting [7] is: 60uM, first c14 line of each analog.
Where [8] appears, read: conc 3.75, count of 20 animals per trial, one hour.

For the compound `O=C(C1CCCC1)N1CCN(c2ccc([N+](=O)[O-])cc2)CC1` [Nemacol-17], the “% effect (motility), DIROIM L4” value is on record as 0% in experiment [1] (2 µM), 0% in experiment [1] (10 µM) and 15% in experiment [1] (50 µM). The “any phene, mean % fraction of young adults exhibiting any phenotype (coiled, jerky-Unc or paralyzed)” value came to 0% in the experiment with C. elegans (3.75uM), 0% with C. elegans (15uM) and 9.167% with C. elegans (60uM). Further, the “atypical locomotion (number of animals)” value in the experiment with C. elegans (3.75uM) was 0; in the experiment on C. elegans (15uM), 0; with C. elegans (60uM), 0 and 2 and 3 and 6. Moreover, the “coiled (number of animals)” value in the experiment with C. elegans (3.75uM), with C. elegans (15uM) and in the experiment with C. elegans (60uM) was 0 each time. In addition, the “no phene (number of animals)” value was 20 in the experiment on C. elegans (3.75uM); 20 in the experiment on C. elegans (15uM); 20 and 18 and 17 and 14 in the experiment on C. elegans (60uM). In addition, the “paralyzed (number of animals)” value in the experiment with C. elegans (3.75uM), in the experiment on C. elegans (15uM) and in the experiment with C. elegans (60uM) was 0 throughout. Further, the half-maximal effective concentration (EC50) with C. elegans (setting [3]) and with Pristionchus pacificus was over 60 µM each time. The “mean % any phene (coiled, jerky-Unc or paralyzed)” value (shortened to “mean % any phene”) in the experiment on Pristionchus pacificus (setting [4]) is recorded as 2.5%; in the experiment with Pristionchus pacificus (conc 15, observed at one hour), 3.333%; in the experiment on Pristionchus pacificus (conc 60, observed at one hour) it was 26.6667%. In addition, the “% effect (motility), DIROIM MF” value in experiment [2] (0.016 µM), in experiment [2] (0.08 µM), in experiment [2] (0.4 µM), in experiment [2] (2 µM) and in experiment [2] (10 µM) was 0% each time.

`O=C(C1CCC1)N1CCN(c2ccc(F)cc2)CC1` [Nemacol-18]: the “% effect (motility), DIROIM L4” value in experiment [1] (2 µM) is given as 5%. Besides, in experiment [1] (10 µM), the “% effect (motility), DIROIM L4” value was found to be 0%. Further, in experiment [1] (50 µM), the “% effect (motility), DIROIM L4” value is 10%. Also, the “any phene (mean % fraction of young adults exhibiting any phenotype: coiled, jerky-Unc or paralyzed)” value in the experiment on C. elegans (setting [5]) was determined as 0%. Besides, the “any phene (mean % fraction of young adults exhibiting any phenotype: coiled, jerky-Unc or paralyzed)” value in the experiment on C. elegans (setting [6]) was 10%. Further, in the experiment on C. elegans (setting [7]), the “any phene (mean % fraction of young adults exhibiting any phenotype: coiled, jerky-Unc or paralyzed)” value turned out to be 27.5%. Further, the EC50 with C. elegans (1 h) was over 60 µM. For the same compound, the “mean % any phene” value with Pristionchus pacificus (setting [4]) is 3.333%. Besides, the “mean % any phene” value with Pristionchus pacificus (conc 15, observed at one hour) came out at 3.333%. In addition, the “mean % any phene” value with Pristionchus pacificus (conc 60, observed at one hour) was found to be 15.8333%. Also, the EC50 in the experiment on Pristionchus pacificus was over 60 µM. In addition, in the experiment on Pristionchus pacificus (setting [8]), the “rep 1 atypical locomotion” value amounted to 0, the “rep 1 coiled” value is listed as 0, the “rep 1 no phene” value stood at 20 and the “rep 1 paralyzed” value is listed as 0. In addition, in the experiment with Pristionchus pacificus (setting [8]), the “rep 2 atypical locomotion” value stood at 0, the “rep 2 coiled” value was 0, the “rep 2 no phene” value is 20 and the “rep 2 paralyzed” value was 0. For the same compound, in the experiment with Pristionchus pacificus (setting [8]), the “rep 3 atypical locomotion” value worked out at 0, the “rep 3 coiled” value was determined as 0, the “rep 3 no phene” value is given as 19 and the “rep 3 paralyzed” value was determined as 1. Further, the “% effect (motility), DIROIM MF” value in experiment [2] (0.016 µM) is 0%. Besides, in experiment [2] (0.08 µM), the “% effect (motility), DIROIM MF” value worked out at 0%. Besides, the “% effect (motility), DIROIM MF” value in experiment [2] (0.4 µM) amounted to 0%. The “% effect (motility), DIROIM MF” value in experiment [2] (2 µM) is reported as 0%. In addition, in experiment [2] (10 µM), the “% effect (motility), DIROIM MF” value was determined as 0%.

As to `O=[N+]([O-])c1ccc(N2CCN(C3CCCCCCC3)CC2)cc1` [Nemacol-21], the “% effect (motility), DIROIM L4” value in experiment [1] (10 µM) and in experiment [1] (50 µM) was 0% each time. Also, the entries for the “any phene (mean % fraction of young adults exhibiting any phenotype: coiled, jerky-Unc or paralyzed)” value in the experiment with C. elegans (setting [5]) and in the experiment with C. elegans (setting [6]) were 3.333% and 17.5%, respectively. In addition, the results for the EC50 in the experiment on C. elegans (setting [3]) and in the experiment on Pristionchus pacificus were 19.6 ± 37.4 µM and 60 ± 10.2 µM, respectively. Moreover, the “mean % any phene” value was 0.8333% in the experiment on Pristionchus pacificus (setting [4]); 6.667% in the experiment with Pristionchus pacificus (conc 15, observed at one hour); 50% in the experiment on Pristionchus pacificus (conc 60, observed at one hour). The “% effect (motility), DIROIM MF” value in experiment [2] (0.016 µM), in experiment [2] (0.08 µM), in experiment [2] (0.4 µM), in experiment [2] (2 µM) and in experiment [2] (10 µM) was 0% each time.

Consider `Cc1cc([N+](=O)[O-])ccc1N1CCN(CC2CCCCC2)CC1` [Nemacol-23, 1-(cyclohexylmethyl)−4-(2-methyl-4-nitrophenyl)piperazine], for which the “% effect (motility), DIROIM L4” value in experiment [1] (2 µM) amounted to 0%; in experiment [1] (10 µM) it was 5%; in experiment [1] (50 µM), 100%. For the same compound, the “any phene (mean % fraction of young adults exhibiting any phenotype: coiled, jerky-Unc or paralyzed)” value in the experiment with C. elegans (setting [5]) is given as 15.8333%; in the experiment with C. elegans (setting [6]) it was 33.3333%; with C. elegans (setting [7]) it was 63.3333%. Further, the results for the EC50 with C. elegans (setting [3]) and with Pristionchus pacificus were 32.1 ± 48.2 µM and over 60 µM, respectively. Besides, the “mean % any phene” value in the experiment on Pristionchus pacificus (setting [4]) was found to be 1.667%; in the experiment with Pristionchus pacificus (conc 15, observed at one hour), 0.8333%; in the experiment on Pristionchus pacificus (conc 60, observed at one hour), 7.5%. Besides, the “% effect (motility), DIROIM MF” value in experiment [2] (0.016 µM), in experiment [2] (0.08 µM), in experiment [2] (0.4 µM), in experiment [2] (2 µM) and in experiment [2] (10 µM) was 0% throughout.

Regarding `Cc1cc(N2CCN(CC3CCCCC3)CC2)ccc1[N+](=O)[O-]` [Nemacol-25, 1-(cyclohexylmethyl)−4-(3-methyl-4-nitrophenyl)piperazine], the “% effect (motility), DIROIM L4” value in experiment [1] (2 µM) is given as 0%; in experiment [1] (10 µM), 11%; in experiment [1] (50 µM) it was 100%. Moreover, the “any phene (mean % fraction of young adults exhibiting any phenotype: coiled, jerky-Unc or paralyzed)” value in the experiment with C. elegans (setting [5]) stood at 2.5%; in the experiment on C. elegans (setting [6]), 20.8333%; in the experiment with C. elegans (setting [7]), 62.5%. For the same compound, the EC50 in the experiment with C. elegans (setting [3]) is 41 ± 26.8 µM; with Pristionchus pacificus it was over 60 µM; in experiment [2], 5.11 µM. For the same compound, the “mean % any phene” value in the experiment on Pristionchus pacificus (setting [4]) was 0.8333%; with Pristionchus pacificus (conc 15, observed at one hour), 6.667%; in the experiment on Pristionchus pacificus (conc 60, observed at one hour), 29.1667%. Moreover, the “% effect (motility), DIROIM MF” value in experiment [2] (0.016 µM) is given as 0%; in experiment [2] (0.08 µM) it was 0%; in experiment [2] (0.4 µM) it was 0%; in experiment [2] (2 µM), 40%; in experiment [2] (10 µM), 60%.

On to `N#Cc1ccc(N2CCN(CC3CCCC3)CC2)cc1` [Nemacol-27, 4-(4-(cyclopentylmethyl)piperazin-1-yl)benzonitrile], for which the results for the “% effect (motility), DIROIM L4” value in experiment [1] (2 µM), in experiment [1] (10 µM) and in experiment [1] (50 µM) were 0%, 10% and 15%, respectively. Moreover, the “any phene (mean % fraction of young adults exhibiting any phenotype: coiled, jerky-Unc or paralyzed)” value in the experiment on C. elegans (setting [5]) is reported as 0.8333%; with C. elegans (setting [6]), 29.1667%; in the experiment with C. elegans (setting [7]) it was 91.3333%. In addition, the EC50 with C. elegans (setting [3]) was 21.9 ± 8.2 µM; in the experiment on Pristionchus pacificus, 16.4 ± 3.6 µM. Also, the “mean % any phene” value was 9.167% and 5% in the experiment on Pristionchus pacificus (setting [4]); 46.6667% and 3.333% in the experiment on Pristionchus pacificus (conc 15, observed at one hour); 88.3333% with Pristionchus pacificus (conc 60, observed at one hour). For the same compound, the “% effect (motility), DIROIM MF” value in experiment [2] (0.016 µM), in experiment [2] (0.08 µM), in experiment [2] (0.4 µM), in experiment [2] (2 µM) and in experiment [2] (10 µM) was 0% in each case.

On to `Cc1cccc(CN2CCN(c3ccc([N+](=O)[O-])cc3)CC2)c1` [Nemacol-40], for which the “% effect (motility), DIROIM L4” value came to 0% in experiment [1] (2 µM), 10% in experiment [1] (10 µM) and 100% in experiment [1] (50 µM). For the same compound, the “any phene (mean % fraction of young adults exhibiting any phenotype: coiled, jerky-Unc or paralyzed)” value was 5% in the experiment with C. elegans (setting [5]), 14.1667% with C. elegans (setting [6]) and 37.5% with C. elegans (setting [7]). Further, the EC50 in the experiment with C. elegans (1 h) is over 60 µM; in the experiment with Pristionchus pacificus, over 60 µM; in experiment [2] it was 10.7 µM. Besides, the “mean % any phene” value is reported as 5% with Pristionchus pacificus (setting [4]); 4.167% with Pristionchus pacificus (conc 15, observed at one hour); 11.9444% with Pristionchus pacificus (conc 60, observed at one hour). Besides, the “% effect (motility), DIROIM MF” value is 0% in experiment [2] (0.016 µM); 0% in experiment [2] (0.08 µM); 0% in experiment [2] (0.4 µM); 0% in experiment [2] (2 µM); 40% in experiment [2] (10 µM).

By EC50 is commonly meant the concentration at which the effect is half-maximal.
